In patent US6583309B1 (University of Medicine and Dentistry of New Jersey, priority 1999, dated 2003):

Assays:
[1] = test system: TAR-TAT complex formation in HL3T1 cells; test: In vivo assay: inhibition of TAR-TAT complex formation in HL3T1 cells (HIV-1 LTR promoter, CAT reporter); assay type: cell-based; conditions: compounds of formula V transfected into HL3T1 cells with pSV2Tat and pAL, CAT and luciferase read after 48 hour, read-out: Kd (nM), binding constants
Description: Binding of compounds of formula I and V to TAR RNA was measured by evaluating their inhibition of TAR-TAT complex formation in the presence of increasing levels of the compound to be tested. The compounds of formula I were tested in an in vitro assay; the compounds of formula V were tested in an in vivo assay.
Cells were grown in 2 mL of Dulbecco's modified Eagle medium (DMEM) supplemented with 10% fetal calf serum in 60 mm dishes at 37° C. in 5% CO2 in a tissue culture incubator. Cells were refreshed by 2 mL DMEM before transfection. Transfection was started by dropwise addition of 250 μL 2×HeBS (Hepes-buffered saline) and then keeping at room temperature for 10 minutes. Approximately 10 μg of plasmids (pSV2Tat and pAL) and increasing amounts of the Compounds DV, DW, DX or DY were transfected in the presence of CaCl2 (final concentration 125 mM) and the cells were incubated for 4 hour at 37° C. in a tissue culture incubator. The medium was then discarded and the cells were subjected to glycerol (1.5 mL of 15%) shock for 45 seconds. Finally the cells were washed twice with PBS (5 mL) and were grown in 3 mL DMEM. The cells were harvested after 48 hour post-transfection with changing with fresh DMEM at 24 hours and lysed in reporter lysis buffer (Promega). Aliquots were used for CAT and luciferase assays. Both activities were normalized to protein concentration determined by using a modified Bradford assay (Bio-Rad).

[2] = target: TAR RNA; test: In vitro binding of resin-bound compounds to TAR RNA (OD260 of unbound RNA); parameters: species or system HIV; conditions: in vitro assay; compounds of formula I on TentaGel beads incubated with TAR RNA overnight at 4° C. in TK buffer; read-out: Kd (nM), binding constants
How it was run: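 Ten beads of TentaGel-bound compound in TK buffer were incubated overnight at 4 °C with T7-transcribed 29-residue TAR RNA ([…]). Unbound RNA in the supernatant was quantified by OD260. KD was calculated from equilibrium RNA concentrations assuming simple bimolecular binding.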

Row | Structure (SMILES) | Kd [2] [nM] | Kd [1] [nM]
1 | N=C(N)NCCC[C@@H](CNC(=O)N[C@@H](CCCNC(=N)N)CNC(=O)N[C@H](CN)CCCCN)NC(N)=O |  | 500
2 | NCCCC[C@@H](COC(N)=O)NC(=O)OC[C@H](CCCCN)NC(=O)OC[C@H](N)CCC(N)=O [Compound CR, Carbamic acid 6-amino-2-[6-amino-2-(2-amino-4-carbamoyl-butoxycarbonylamino)-hexyloxycarbonylamino]-hexyl ester] | 981 | 
3 | NCCCC[C@@H](COC(N)=O)NC(=O)CN(CCCCN)C(=O)[C@H](N)CCCCN [Compound CV, Carbamic acid 6-amino-2-{2-[(4-amino-butyl)-(2,6-diamino-hexanoyl)-amino]-acetylamino}-hexyl ester] | 567 | 
4 | NCCCC[C@@H](COC(N)=O)NC(=O)CN(CCCCN)C(=O)OC[C@H](N)CCC(N)=O [Compound DA, Carbamic acid 6-amino-2-{2-[(4-amino-butyl)-(2-amino-4-carbamoyl-butoxycarbonyl)-amino]-acetylamino}-hexyl ester] | 301 | 
5 | NCCCCCN(CC(=O)N[C@@H](CCCCN)COC(N)=O)C(=O)OC[C@@H](N)CCCCN [Compound DB, Carbamic acid 6-amino-2-{2-[(5-amino-pentyl)-(2,6-diamino-hexyloxycarbonyl)-amino]-acetylamino}-hexyl ester] | 256 | 
6 | NCCCCCN(CC(=O)N[C@@H](CCCCN)COC(N)=O)C(=O)[C@@H](N)CCCCN [Compound DD, Carbamic acid 6-amino-2-{2-[(5-amino-pentyl)-(2,6-diamino-hexanoyl)-amino]-acetylamino}-hexyl ester] | 567 | 
7 | NCCCCCN(CC(=O)N[C@@H](CCCCN)COC(N)=O)C(=O)[C@H](N)CCCCN [Compound DE, Carbamic acid 6-amino-2-{2-[(5-amino-pentyl)-(2,6-diamino-hexanoyl)-amino]-acetylamino}-hexyl ester] | 120 | 
8 | NCCCCCNCC(=O)N(CCCCCN)CC(=O)N[C@@H](CCCCN)COC(N)=O [Compound DF, Carbamic acid 6-amino-2-(2-{(5-amino-pentyl)-[2-(5-amino-pentylamino)-acetyl]-amino}-acetylamino)-hexyl ester] | 31400 | 
9 | NCCCCCCCNCC(=O)N(CCCCCN)CC(=O)N[C@@H](CCCCN)COC(N)=O [Compound DG, Carbamic acid 6-amino-2-{2-[[2-(7-amino-heptylamino)-acetyl]-(5-amino-pentyl)-amino]-acetylamino}-hexyl ester] | 235 | 
10 | NCCCCCN(CC(=O)N[C@@H](CCCCN)COC(N)=O)C(=O)OC[C@H](N)CCC(N)=O [Compound DJ, Carbamic acid 6-amino-2-{2-[(2-amino-4-carbamoyl-butoxycarbonyl)-(5-amino-pentyl)-amino]-acetylamino}-hexyl ester] | 603 | 
11 | NCCCCCCCN(CC(=O)N[C@@H](CCCCN)COC(N)=O)C(=O)OC[C@H](N)CCCCN [Compound DL, Carbamic acid 6-amino-2-{2-[(7-amino-heptyl)-(2,6-diamino-hexyloxycarbonyl)-amino]-acetylamino}-hexyl ester] | 678 | 
12 | NCCCCCCCN(CC(=O)N[C@@H](CCCCN)COC(N)=O)C(=O)OC[C@H](N)CCC(N)=O [Compound DS, Carbamic acid 6-amino-2-{2-[(2-amino-4-carbamoyl-butoxycarbonyl)-(7-amino-heptyl)-amino]-acetylamino}-hexyl ester] | 3150 | 
13 | NCCCC[C@H](COC(N)=O)NC(=O)[C@H](CCCCN)NC(=O)OC[C@H](N)CCC(N)=O [Compound DU, Carbamic acid 6-amino-2-[6-amino-2-(2-amino-4-carbamoyl-butoxycarbonylamino)-hexanoylamino]-hexyl ester] | 639 | 

More lines, in order of falling Kd [2], values ahead:

Row | Kd [2] [nM] | Structure (SMILES) | Kd [1] [nM]
14 | 7690 | NCCCCCN(CC(=O)N[C@@H](CCCCN)COC(N)=O)C(=O)CNCCCCN [Compound DH, Carbamic acid 6-amino-2-{2-[[2-(4-amino-butylamino)-acetyl]-(5-amino-pentyl)-amino]-acetylamino}-hexyl ester] | 
15 | 6140 | NCCCCCCCN(CC(=O)N[C@@H](CCCCN)COC(N)=O)C(=O)CNCCCCN [Compound DQ, Carbamic acid 6-amino-2-{2-[[2-(4-amino-butylamino)-acetyl]-(7-amino-heptyl)-amino]-acetylamino}-hexyl ester] | 
16 | 5110 | NCCCCCN(CC(=O)N[C@@H](CCCCN)COC(N)=O)C(=O)OC[C@H](N)CCCCN [Compound DC, Carbamic acid 6-amino-2-{2-[(5-amino-pentyl)-(2,6-diamino-hexyloxycarbonyl)-amino]-acetylamino}-hexyl ester] | 
17 | 3980 | NCCCCCNCC(=O)N(CCCCN)CC(=O)N[C@@H](CCCCN)COC(N)=O [Compound CW] | 
18 | 1110 | NCCCCCCCN(CC(=O)N[C@@H](CCCCN)COC(N)=O)C(=O)OC[C@@H](N)CCCCN [Compound DK, Carbamic acid 6-amino-2-{2-[(7-amino-heptyl)-(2,6-diamino-hexyloxycarbonyl)-amino]-acetylamino}-hexyl ester] | 
19 | 1040 | NCCCCCCCN(CC(=O)N[C@@H](CCCCN)COC(N)=O)C(=O)CNCCCCCN [Compound DO, Carbamic acid 6-amino-2-(2-{(7-amino-heptyl)-[2-(5-amino-pentylamino)-acetyl]-amino}-acetylamino)-hexyl ester] | 
20 | 774 | NCCCCCCCNCC(=O)N(CCCCCCCN)CC(=O)N[C@@H](CCCCN)COC(N)=O [Compound DP, Carbamic acid 6-amino-2-(2-{(7-amino-heptyl)-[2-(7-amino-heptylamino)-acetyl]-amino}-acetylamino)-hexyl ester] | 
21 | 718 | NCCCC[C@@H](COC(N)=O)NC(=O)CN(CCCCN)C(=O)[C@@H](N)CCCCN [Compound CU, Carbamic acid 6-amino-2-{2-[(4-amino-butyl)-(2,6-diamino-hexanoyl)-amino]-acetylamino}-hexyl ester] | 
22 | 678 | NCCCCCCCN(CC(=O)N[C@@H](CCCCN)COC(N)=O)C(=O)[C@H](N)CCCCN [Compound DN, Carbamic acid 6-amino-2-{2-[(7-amino-heptyl)-(2,6-diamino-hexanoyl)-amino]-acetylamino}-hexyl ester] | 
23 | 523 | NCCCCNCC(=O)N(CCCCN)CC(=O)N[C@@H](CCCCN)COC(N)=O [Compound CY, Carbamic acid 6-amino-2-(2-{(4-amino-butyl)-[2-(4-amino-butylamino)-acetyl]-amino}-acetylamino)-hexyl ester] | 
24 | 491 | NCCCC[C@H](N)COC(=O)N(CCCCN)CC(=O)N[C@@H](CCCCN)COC(N)=O [Compound CS, Carbamic acid 6-amino-2-{2-[(4-amino-butyl)-(2,6-diamino-hexyloxycarbonyl)-amino]-acetylamino}-hexyl ester] | 
25 | 460 | N=C(N)NCCC[C@H](N)COC(=O)N(CCCCCCCN)CC(=O)N[C@@H](CCCCN)COC(N)=O [Compound DR] | 
26 | 256 | NCCCCCCCNCC(=O)N(CCCCN)CC(=O)N[C@@H](CCCCN)COC(N)=O [Compound CX, Carbamic acid 6-amino-2-(2-{(4-amino-butyl)-[2-(7-amino-heptylamino)-acetyl]-amino}-acetylamino)-hexyl ester] | 
27 | 256 | NCCCCCCCN(CC(=O)N[C@@H](CCCCN)COC(N)=O)C(=O)[C@@H](N)CCCCN [Compound DM, Carbamic acid 6-amino-2-{2-[(7-amino-heptyl)-(2,6-diamino-hexanoyl)-amino]-acetylamino}-hexyl ester] | 
28 | 235 | N=C(N)NCCC[C@H](N)COC(=O)N(CCCCCN)CC(=O)N[C@@H](CCCCN)COC(N)=O [Compound DI, Carbamic acid 6-amino-2-{2-[(2-amino-5-guanidino-pentyloxycarbonyl)-(5-amino-pentyl)-amino]-acetylamino}-hexyl ester] | 
29 | 215 | N=C(N)NCCC[C@H](N)COC(=O)N[C@@H](CCCCN)C(=O)N[C@H](CCCCN)COC(N)=O [Compound DT, Carbamic acid 6-amino-2-[6-amino-2-(2-amino-5-guanidino-pentyloxycarbonylamino)-hexanoylamino]-hexyl ester] | 
30 | 183 | N=C(N)NCCC[C@H](N)COC(=O)N(CCCCN)CC(=O)N[C@@H](CCCCN)COC(N)=O [Compound CZ, Carbamic acid 6-amino-2-{2-[(4-amino-butyl)-(2-amino-5-guanidino-pentyloxycarbonyl)-amino]-acetylamino}-hexyl ester] | 
31 | 147 | NCCCC[C@@H](N)COC(=O)N(CCCCN)CC(=O)N[C@@H](CCCCN)COC(N)=O [Compound CT, Carbamic acid 6-amino-2-{2-[(4-amino-butyl)-(2,6-diamino-hexyloxycarbonyl)-amino]-acetylamino}-hexyl ester] | 
